Entries after “also recorded” stand apart in the source; their conditions may differ.
Legend:
[1] = system: mice; test: Sucrose preference after CVS and ligand microinfusion; type: in vivo; conditions: tested app. 24 h after microinfusion
Protocol: (§1) AAVs, stereotaxic surgery and microinjection.
(§2) Behavioral tests and CVS. The acute behavioral tests forced swim test, tail suspension test, sucrose preference, splash test and novelty suppressed feeding were performed as described ^13,23. After CVS, no tail suspension test was conducted, as tail suspension is part of the stress-induction protocol. For CVS-groups, caffeine was injected at the last day of CVS (day 21), just prior to the stressor. The CVS-protocol was performed as described ^13. […] Stressors consist of one hour of either, tube restraint, tail suspension or 100 mild electric random […]. If only female experimenters were present, a used male t-shirt was wrapped in clean protective clothing from the animal unit and placed into the experimental room in order to avoid variability due to sex-specific scents of the scientists ^24. All experiments were conducted in the light phase of the light-cycle to allow comparability with previous experiments ^22.

[2] = system: Bcl2; test: qPCR of apoptosis marker Bcl2 after microinfusion into the NAc; type: in vivo, mice; conditions: 1nmolar NPB or 1 µmolar CYM50769 into NAc, tissue 24 h later
Excerpt: (§3) RNA purification and quantification. […] RNA was washed in isopropanol and 75% Ethanol. […] Primer sequences are listed in the supplementary material. Quantitative PCR results were processed as described ^22.
as §1

[3] = system: Bdnf; test: Bdnf qPCR after microinfusion of Npbwr1 ligands into the NAc; type: in vivo, mice
Excerpt: as §3, §1

[4] = system: Casp3; test: qPCR of apoptosis marker Casp3 after microinfusion into the NAc; type: in vivo, mice; conditions: 1nmolar NPB or 1 µmolar CYM50769 into NAc, tissue 24 h later
Excerpt: as §3, §1

[5] = system: mice; test: Tests for depressive-like behavior (forced swim, splash, sucrose preference) 24 h after ligand microinjection; type: in vivo; conditions: 24 h later; for behavioral effects of CVS: CVS mice, 1 nM NPB or 1 µM CYM50769 into NAc after last stress session; for depressive-like behaviors: naïve mice, 1 nM NPB or 1 µM CYM50769 into NAc
Protocol: as §1, §2
Next, the rapid effects of Npbwr1 activity were tested on depressive-like behaviors in vivo. To that end, mice underwent CVS and were microinjected with 1 nM NPB and 1 µm CYM50769 after the last session of stress induction. Behavioral tests were conducted 24 h later. […] In contrast, CYM50769 had no effects in naïve mice.

[6] = system: mice; test: Splash test after CVS and ligand microinfusion; type: in vivo; conditions: tested app. 24 h after microinfusion
Protocol: as §2, with “Drugs” for “Behavioral tests”, “chemicals. […]” for “CVS. The acute behavioral tests forced swim test, tail suspension test, sucrose preference, splash test and novelty suppressed feeding were performed as described ^13,23.”, “For CVS-groups, caffeine was injected at the last day of CVS (day 21), just prior to the stressor.” left out

[7] = system: mice; conditions: acute microinfusion into NAc
Protocol: Drugs and chemicals. Mice were intraperitoneally (i.p.) injected with 7.5 mg/kg caffeine (#, C0750, Sigma) or saline at an injection volume of 10ml/kg body weight and tested 2 or 24 h later.
In order to address the rapid acting aspects of the Npbwrl-pathway, ligands were microinjected into the NAc that activate (NPB) or inhibit (CYM50769) Npbwr1. While NPB is a natural neurotransmitter, CYM50769 is a synthetic ligand, which has not been tested in vivo. […] Doses of 0.1 µM, 1 µM and 10 µM CYM50769 were injected and mice were scored for health markers for 7 days.

[8] = system: mice; test: Forced swim test after CVS and ligand microinfusion; type: in vivo; conditions: microinfused after last stress induction, tested app. 24 h later
Protocol: as §2, with “Drugs” for “Behavioral tests”, “chemicals. […]” for “CVS. The acute behavioral tests forced swim test, tail suspension test, sucrose preference, splash test and novelty suppressed feeding were performed as described ^13,23.”, “For CVS-groups, caffeine was injected at the last day of CVS (day 21), just prior to the stressor.” left out

[9] = system: Per2; test: qPCR of circadian gene Per2 after microinfusion into the NAc; type: in vivo, mice; conditions: 1nmolar NPB or 1 µmolar CYM50769 into NAc, tissue 24 h later
Excerpt: as §3, §1

[10] = system: mice; test: Behavioral tests after chronic variable stress (CVS), 24h after caffeine; type: in vivo; conditions: female mice after CVS, 7.5 mg/kg caffeine i.p., tested 24h later
Protocol: as §2

[11] = system: Npbwr1; test: Npbwr1 expression in NAc after caffeine (RNA-sequencing, qPCR); type: in vivo, mice
Excerpt: as §3
(§4) Next-generation RNA-sequencing. An in-house RNA-sequencing analysis pipeline was applied as described ^25. After artificial depletion of ribosomal RNA (rRNA) transcripts from the data set, more than 90% of reads aligned to the reference genome GRCm38, indicating excellent sample quality. Only changes that reached an adjusted P-value < 0.05 and a log2FC 0.5 <> - 0.5 were further considered.
(§5) To determine caffeine-regulate transcripts, next-generation RNA-sequencing 2h after caffeine-injection on NAc of wildtype (WT) and T75A mice were performed. Tissue was collected at four time points along the diurnal clock ^14. As expected, significant changes in circadian markers were observed, which oscillated in the expected manner across the four measured time points (Per1, Per2, Cry1, Bmal), both in WT and T75A-DARPP-32 mutant mice (Figure 3). […] Altered transcripts belonged to a variety of cellular signaling pathways, including synaptic transmission, transcriptional regulation and hormonal signaling (Figure 4C).

[12] = system: mice; conditions: both sexes; reference 14; cited from earlier work
[13] = system: NAc of wildtype (WT) and DARPP-32-T75A mutant mice; test: RNA-sequencing of NAc 2h after caffeine injection; type: in vivo; conditions: active and inactive phases
Protocol: as §4, §5

[14] = system: circadian genes; test: Read-counts of circadian genes (Per1, Per2, Cry, Bmal) after caffeine; type: in vivo, mice; conditions: normalized read-counts for Per1, Per2, Cry, 2h after caffeine
Protocol: as §4, §5

[15] = system: NAc dendritic spines; test: NAc dendritic spine analysis after CVS and caffeine; type: in vivo, mice
Excerpt: as §1
Dendritic spine analysis. The analysis was based on detecting the AAVs' GFP-fluorophores. Photos of 40 µm PFA-fixed brain sections were taken with a Zeiss LSM 880 confocal microscope using the AiryScan method. Maximum intensity projections were obtained using Zen Black and Zen Blue software and analysed in NeuronStudio (CNIC, Mount Sinai School of Medicine). The total density of spines, proportions of thin, mushroom and stubby spines as well as the cumulative neck-length were determined in Graph Prism. Neck-containing mushroom density refer to the sum of thin and mushroom spine densities.

[16] = system: mice; test: Escape behavior tests in naive WT and T75A mice 24h after caffeine; type: in vivo; conditions: naïve WT mice; 7.5 mg/kg caffeine in the dark phase; tested 24h later
Protocol: as §2

[17] = system: mice; test: Forced swim test after CVS and ligand microinfusion; type: in vivo; conditions: naive mice; 1 nM NPB or 1 µM CYM50769 into NAc; tested app. 24 h later
Protocol: as §1, §2

[18] = system: mouse brain; conditions: intracerebroventricular injection; reference 15; cited from earlier work
[19] = system: mice; test: Splash test after CVS and ligand microinfusion; type: in vivo; conditions: naive mice; tested app. 24 h after microinfusion
Protocol: as §1, §2

[20] = 1nmolar NPB or 1 µmolar CYM50769 microinfused into NAc, tissue collected 24 h later

COc1ccc(Oc2c(Cl)cnn(C3c4ccccc4-c4ccccc43)c2=O)cc1 [CYM50769]
Sucrose preference, CVS-effects [1]: rescues CVS-effects | Bcl2 (apoptosis marker) [2]: No effect; also recorded: Neither NPB nor CYM50769 affected | Bdnf [3, 20]: increases Bdnf; also recorded: altered Bdnf-levels | Bdnf ([3]; 1 µmolar CYM50769 microinfused into NAc, single dose, tissue collected 7 days later): persists at the 7 day time point | Bdnf ([3]; 1 µmolar CYM50769 microinfused into NAc, single dose, tissue collected 7 days later, listed as CYM5069): altered Bdnf levels starting at 24h for up to 7 days | Casp3 (apoptosis marker) [4]: does not alter; also recorded: Neither NPB nor CYM50769 affected | behavioral effects of CVS [5]: rescued CVS-effects; also recorded: blocked those | behavioral effects of CVS ([5]; listed as CYM5069): reversed effects of chronic stress on behavior | depressive-like behaviors [5]: no effects | Splash test, CVS-effects [6]: blocks CVS-effects | selectivity and tolerability of an acute dose [7]: selective and well tolerated | Forced swim test, CVS-effects [8]: blocks CVS-effects | Per2 (circadian gene) [9]: not affected; also recorded: did not alter

Cn1c(=O)c2c(ncn2C)n(C)c1=O [caffeine]
stress-induced behavioral changes [10]: reversed; also recorded: improved stress-induced behavioral changes | Npbwr1 levels ([11]; 24h after caffeine injection, dark phase): decreased; also recorded: reduced | Npbwr1 expression ([11]; WT mice, 2h after caffeine injection, end of the dark phase): increased | mood-elevating effects [12]: only occurred in the active (dark) phase | caffeine-induced transcriptional changes [13]: biggest effect of caffeine occurs in WT in the active phase; also recorded: occurred in WT in the active (dark) phase | amplitude of circadian oscillations [14]: may slightly flatten the amplitude | CVS-induced changes in NAc dendritic spines ([15]; females, 24h after caffeine injection): reversed by caffeine back to naive levels | Cumulative head diameter ([15]; females, CVS, 24h after caffeine): reversed | CVS-induced spine changes ([15]; males, CVS, caffeine): partially reversed | Cumulative head diameter ([15]; males, CVS, caffeine): reversed | Escape behaviors [16]: altered

NPB: natural agonist of Npbwr1, a natural neurotransmitter; short biologically active peptide (#CSB-MP015971HU-100, Cusabio)
Sucrose preference, ratio of sucrose solution consumed ([1]; naive mice): reduce the ratio of sucrose solution consumed | Bdnf [3, 20]: decreases Bdnf; also recorded: altered Bdnf-levels; also recorded: opposing effect on Bdnf | Forced swim test, immobility time [17]: increases immobility time | behavioral effects of CVS [5]: not enhancing the behavioral effects of CVS further | depressive-like behaviors [5]: elicited depressive-like behaviors; also recorded: increased depressive-like behaviors; also recorded: mimicked chronic stress effects | feeding [18]: induced hyperphagia after 2 h, followed by hypophagia | Per2 (circadian gene) [9]: not affected; also recorded: did not alter | Splash test, grooming [19]: may reduce grooming

Source: EP4512403A1, “NEUROPEPTIDE B AND W-RECEPTOR AS A TARGET FOR TREATING MOOD DISORDERS AND/OR CHRONIC STRESS” (Friedrich-Schiller-Universität Jena, priority 2023, dated 2025)
